Assay: Biodistribution of the nano-emulsion of Example 1.1 (radioactivity and fluorescence per organ)
Assay type: in vivo
Description: In the following examples, the radioactivity was counted with the TRiCarb Counter (Ref: Packard, Liquid Scintillation Analyzers; Models 2200CA).
Fluobeam 700 (Fluoptics) is the apparatus with which the whole of the organs from the biodistribution were analyzed in fluorescence as well as the one with which the biodistribution kinetics of the nano-emulsions were established in vivo. This imaging system allows viewing of the fluorescence in spectral bands from 700 to 850 nm for a 650 nm excitation. The apparatus consists of an electric case containing the laser of class 3B, its power supply and an optical head containing the CCD camera.
The nano-emulsions of Example 1 were injected into FVB female and male mice. As a comparison, a mixture of three tracers ([3H]CHE, [14C]CO and DiD) (not formulated as a nano-emulsion) was injected in order to observe the distribution of the tracers in the absence of droplets being used as a distribution carrier.
Tables 6 to 14 provide the biodistribution results of each tracer ([3H]CHE, [14C]CO and DiD) expressed as a percentage of the dose injected per gram of tissue (or [3H]CHE and [14C]CO) or as fluorescence intensity (for DiD) depending on the organ of the mouse, 15 minutes (Table 6), 2 hours (Table 7), 4 hours (Table 8), 6 hours (Table 9), 16 hours (Table 10), 24 hours (Table 11), 72 hours (Table 12), 120 hours (Table 13) and 168 hours (Table 14), after injection into an FVB female mouse of the nano-emulsion of Example 1.1. (nano-emulsion according to the invention comprising the three tracers ([3H]CHE, [14C]CO and DiD).

[1] = 2 h after injection of nano-emulsion of Example 1.1, FVB female mouse
[2] = 4 h after injection of nano-emulsion of Example 1.1, FVB female mouse
[3] = 16 h (Table 9 head) after injection of nano-emulsion of Example 1.1, FVB female mouse
[4] = 24 h (Table 10 head) after injection of nano-emulsion of Example 1.1, FVB female mouse
[5] = 48 h (Table 11 head) after injection of nano-emulsion of Example 1.1, FVB female mouse
[6] = 72 h after injection of nano-emulsion of Example 1.1, FVB female mouse
[7] = 120 h after injection of nano-emulsion of Example 1.1, FVB female mouse

biodistribution, Lung (MEAN) [1]: 4.42 % of injected dose per gram of | biodistribution, Muscle (MEAN) [1]: 0.48 % of injected dose per gram of | biodistribution, Ovary (MEAN) [1]: 22.72 % of injected dose per gram of | biodistribution, Pancreas (MEAN) [1]: 1.68 % of injected dose per gram of | biodistribution, Salivary glands (MEAN) [1]: 1.74 % of injected dose per gram of | biodistribution, Spleen (MEAN) [1]: 2.87 % of injected dose per gram of | biodistribution, Uterus (MEAN) [1]: 2.21 % of injected dose per gram of | biodistribution, Adrenal glands (MEAN) [2]: 21.37 % of injected dose per gram of | biodistribution, Brain (MEAN) [2]: 0.23 % of injected dose per gram of | biodistribution, Fat (MEAN) [2]: 1.46 % of injected dose per gram of | biodistribution, Heart (MEAN) [2]: 3.75 % of injected dose per gram of | biodistribution, Intestine (MEAN) [2]: 1.80 % of injected dose per gram of | biodistribution, Kidney (MEAN) [2]: 2.27 % of injected dose per gram of | biodistribution, Liver (MEAN) [2]: 13.69 % of injected dose per gram of | biodistribution, Lungs (MEAN) [2]: 3.09 % of injected dose per gram of | biodistribution, Muscle (MEAN) [2]: 0.38 % of injected dose per gram of | biodistribution, Ovary (MEAN) [2]: 25.14 % of injected dose per gram of | biodistribution, Pancreas (MEAN) [2]: 1.17 % of injected dose per gram of | biodistribution, Salivary glands (MEAN) [2]: 1.47 % of injected dose per gram of | biodistribution, Spleen (MEAN) [2]: 1.97 % of injected dose per gram of | biodistribution, Uterus (MEAN) [2]: 1.39 % of injected dose per gram of | biodistribution, Adrenal glands (MEAN) [3]: 30.64 % of injected dose per gram of | biodistribution, Brain (MEAN) [3]: 0.13 % of injected dose per gram of | biodistribution, Fat (MEAN) [3]: 8.06 % of injected dose per gram of | biodistribution, Heart (MEAN) [3]: 2.00 % of injected dose per gram of | biodistribution, Intestine (MEAN) [3]: 2.53 % of injected dose per gram of | biodistribution, Kidney (MEAN) [3]: 1.75 % of injected dose per gram of | biodistribution, Liver (MEAN) [3]: 8.68 % of injected dose per gram of | biodistribution, Lungs (MEAN) [3]: 2.80 % of injected dose per gram of | biodistribution, Muscle (MEAN) [3]: 1.59 % of injected dose per gram of | biodistribution, Ovary (MEAN) [3]: 21.45 % of injected dose per gram of | biodistribution, Pancreas (MEAN) [3]: 1.19 % of injected dose per gram of | biodistribution, Salivary glands (MEAN) [3]: 2.02 % of injected dose per gram of | biodistribution, Spleen (MEAN) [3]: 1.89 % of injected dose per gram of | biodistribution, Uterus (MEAN) [3]: 2.76 % of injected dose per gram of | biodistribution, Adrenal glands (MEAN) [4]: 13.05 % of injected dose per gram of | biodistribution, Brain (MEAN) [4]: 0.11 % of injected dose per gram of | biodistribution, Fat (MEAN) [4]: 2.28 % of injected dose per gram of | biodistribution, Heart (MEAN) [4]: 1.31 % of injected dose per gram of | biodistribution, Intestine (MEAN) [4]: 1.22 % of injected dose per gram of | biodistribution, Kidney (MEAN) [4]: 1.03 % of injected dose per gram of | biodistribution, Liver (MEAN) [4]: 5.39 % of injected dose per gram of | biodistribution, Lung (MEAN) [4]: 1.30 % of injected dose per gram of | biodistribution, Muscle (MEAN) [4]: 1.01 % of injected dose per gram of | biodistribution, Ovary (MEAN) [4]: 9.58 % of injected dose per gram of | biodistribution, Pancreas (MEAN) [4]: 0.67 % of injected dose per gram of | biodistribution, Salivary glands (MEAN) [4]: 1.76 % of injected dose per gram of | biodistribution, Spleen (MEAN) [4]: 1.10 % of injected dose per gram of | biodistribution, Uterus (MEAN) [4]: 0.96 % of injected dose per gram of | biodistribution, Adrenal glands (MEAN) [5]: 10.83 % of injected dose per gram of | biodistribution, Brain (MEAN) [5]: 0.11 % of injected dose per gram of | biodistribution, Fat (MEAN) [5]: 3.46 % of injected dose per gram of | biodistribution, Heart (MEAN) [5]: 0.87 % of injected dose per gram of | biodistribution, Intestine (MEAN) [5]: 1.01 % of injected dose per gram of | biodistribution, Kidney (MEAN) [5]: 0.77 % of injected dose per gram of | biodistribution, Liver (MEAN) [5]: 1.53 % of injected dose per gram of | biodistribution, Lungs (MEAN) [5]: 1.28 % of injected dose per gram of | biodistribution, Muscle (MEAN) [5]: 0.34 % of injected dose per gram of | biodistribution, Ovary (MEAN) [5]: 6.46 % of injected dose per gram of | biodistribution, Pancreas (MEAN) [5]: 0.70 % of injected dose per gram of | biodistribution, Salivary glands (MEAN) [5]: 1.20 % of injected dose per gram of | biodistribution, Spleen (MEAN) [5]: 1.03 % of injected dose per gram of | biodistribution, Uterus (MEAN) [5]: 1.24 % of injected dose per gram of | biodistribution, Adrenal glands (MEAN) [6]: 9.36 % of injected dose per gram of | biodistribution, Brain (MEAN) [6]: 0.10 % of injected dose per gram of | biodistribution, Fat (MEAN) [6]: 5.01 % of injected dose per gram of | biodistribution, Heart (MEAN) [6]: 0.64 % of injected dose per gram of | biodistribution, Intestine (MEAN) [6]: 0.62 % of injected dose per gram of | biodistribution, Kidney (MEAN) [6]: 0.66 % of injected dose per gram of | biodistribution, Liver (MEAN) [6]: 0.75 % of injected dose per gram of | biodistribution, Lungs (MEAN) [6]: 0.88 % of injected dose per gram of | biodistribution, Muscle (MEAN) [6]: 0.28 % of injected dose per gram of | biodistribution, Ovary (MEAN) [6]: 3.04 % of injected dose per gram of | biodistribution, Pancreas (MEAN) [6]: 0.50 % of injected dose per gram of | biodistribution, Salivary glands (MEAN) [6]: 1.16 % of injected dose per gram of | biodistribution, Spleen (MEAN) [6]: 0.75 % of injected dose per gram of | biodistribution, Uterus (MEAN) [6]: 1.00 % of injected dose per gram of | biodistribution, Fat (MEAN) [7]: 2.42 % of injected dose per gram of | biodistribution, Kidney (MEAN) [7]: 0.40 % of injected dose per gram of
SMILES: CCCCCCCC/C=C\CCCCCCC[14C](=O)O[C@H]1CC[C@@]2(C)C(=CC[C@H]3[C@@H]4CC[C@H]([C@H](C)CCCC(C)C)[C@@]4(C)CC[C@@H]32)C1 [[14C]CO, cholesteryl oleate]
